Experiments:
[1] = biological target: Urokinase-type plasminogen activator (Homo sapiens, UniProt P00749); experiment: Inhibition of uPA
Trypsin = Trypsin (Homo sapiens, UniProt P07477+P07478+P35030); experiment: Inhibition of trypsin; type: protein assay
[2] = biological target: Tissue-type plasminogen activator (Homo sapiens, UniProt P00750); experiment: Inhibition of tPA
Chain of Tissue-type plasminogen activator (P00750 whole entry): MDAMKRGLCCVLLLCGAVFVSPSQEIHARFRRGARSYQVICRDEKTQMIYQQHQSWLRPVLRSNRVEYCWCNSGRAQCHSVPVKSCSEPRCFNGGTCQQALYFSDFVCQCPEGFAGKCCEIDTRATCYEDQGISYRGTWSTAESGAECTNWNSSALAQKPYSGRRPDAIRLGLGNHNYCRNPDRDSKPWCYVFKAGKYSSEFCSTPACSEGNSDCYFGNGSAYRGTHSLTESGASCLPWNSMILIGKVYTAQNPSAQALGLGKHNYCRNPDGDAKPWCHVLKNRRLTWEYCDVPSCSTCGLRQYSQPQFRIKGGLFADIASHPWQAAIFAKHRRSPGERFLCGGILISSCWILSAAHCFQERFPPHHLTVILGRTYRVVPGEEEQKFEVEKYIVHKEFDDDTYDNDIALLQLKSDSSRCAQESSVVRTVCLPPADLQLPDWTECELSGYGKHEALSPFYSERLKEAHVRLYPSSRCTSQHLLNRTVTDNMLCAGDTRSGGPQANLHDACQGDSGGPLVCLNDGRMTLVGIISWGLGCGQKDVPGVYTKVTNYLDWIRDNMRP

Ki [1]: 34 µM
Ki (Trypsin): 160 µM
Ki [2]: > 1 mM
Compound: N=C(N)Nc1ccc(CC(=O)c2ccccc2)cc1

Reference: ChEMBL document CHEMBL1137557, “Geometry of GPPE binding to picrate and to the urokinase type plasminogen activator” (Bioorg Med Chem Lett, 2007)
